Test results taken from ChEMBL document CHEMBL5131533, “Indazole and Benzoisoxazole Compounds as Dihydroorotate Dehydrogenase Inhibitors for Treating Acute Myelogenous Leukemia” (ACS Med Chem Lett, 2022).

Assays:
[1] = molecular target: Dihydroorotate dehydrogenase (quinone), mitochondrial (Homo sapiens, UniProt Q02127); assay: Inhibition of human DHODH using dihydroorotate as substrate and Q6 as coenzyme by DCIP dye based spectrophotometry analysis
MOLM-13 = assay: Antiproliferative activity against human MOLM-13 cells incubated for 72 hrs by CellTiter-Glo based multilabel reader analysis; assay type: functional, cell-based; details: MOLM-13, 72 h

Sequence of Dihydroorotate dehydrogenase (quinone), mitochondrial (Q02127 whole entry): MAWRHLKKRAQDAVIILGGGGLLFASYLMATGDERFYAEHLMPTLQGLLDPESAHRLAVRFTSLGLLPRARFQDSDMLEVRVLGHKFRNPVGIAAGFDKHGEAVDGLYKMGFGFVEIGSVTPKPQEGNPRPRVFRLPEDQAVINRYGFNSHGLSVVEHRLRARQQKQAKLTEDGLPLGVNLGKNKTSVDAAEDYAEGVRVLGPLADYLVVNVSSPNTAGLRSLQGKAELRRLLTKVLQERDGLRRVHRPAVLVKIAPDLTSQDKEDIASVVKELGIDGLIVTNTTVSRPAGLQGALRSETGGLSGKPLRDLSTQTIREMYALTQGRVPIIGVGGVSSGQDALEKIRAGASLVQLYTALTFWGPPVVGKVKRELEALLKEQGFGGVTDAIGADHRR

| Compound | IC50 [1] [nM] | IC50 (MOLM-13) [nM] |
| --- | --- | --- |
| CCn1c(CO)nn(-c2cc(O[C@@H](C)C(F)(F)F)c3c(Nc4c(C)ccnc4Cl)nn(C)c3c2F)c1=O | 2 | 5.7 |
| CCn1c(CO)nn(-c2cc(OC(C)C(F)(F)F)c3c(Nc4c(F)cccc4Cl)nn(C)c3c2F)c1=O (configuration not stated) | 3 | 1.2 |
| CCn1c(CO)nn(-c2cc(OC(C)C(F)(F)F)c3c(Nc4c(F)cccc4Cl)nn(C)c3c2)c1=O (configuration not stated) | 8 | 3 |
| Cc1ccnc(Cl)c1Nc1nn(C)c2c(F)c(-c3cn(C)c(C(C)(C)O)n3)cc(O[C@@H](C)C(F)(F)F)c12 | 1 | 0.1 |
| CCn1c(CO)nn(-c2cc(O[C@@H](C)C(F)(F)F)c3c(Nc4c(F)cccc4Cl)nn(C)c3c2F)c1=O | 2 | 0.7 |
| CCn1c(CO)nn(-c2cc(O[C@@H](C)C(F)(F)F)c3c(Nc4c(F)cccc4Cl)noc3c2F)c1=O | 2 | 0.7 |
